Experimental data from ChEMBL document CHEMBL3301458, “MMV Malaria Box hERG screening”.
Active and inactive are the calls of the source. How the calls were made is not given here.

How the values were obtained:
[1] = target: T1, hERG (Kv11.1, KCNH2) (Homo sapiens, UniProt Q12809); test: in vitro
Description: MMV: Malaria Box compounds were tested for inhibition of the human ether a go-go related gene (hERG), Kv11.1 channel, using IonWorks 384-well patch clamp electrophysiology at 1.1uM (3 independent assay plates up to 12 cells per concentration).

[2] = target: T1, hERG (Kv11.1, KCNH2); test: in vitro; remark: listed apart in the source
Description: MMV: Malaria Box compounds were tested for inhibition of the human ether a go-go related gene (hERG), Kv11.1 channel, using IonWorks 384-well patch clamp electrophysiology at 11.1uM (3 independent assay plates up to 12 cells per concentration).

T1 sequence (Q12809 whole entry): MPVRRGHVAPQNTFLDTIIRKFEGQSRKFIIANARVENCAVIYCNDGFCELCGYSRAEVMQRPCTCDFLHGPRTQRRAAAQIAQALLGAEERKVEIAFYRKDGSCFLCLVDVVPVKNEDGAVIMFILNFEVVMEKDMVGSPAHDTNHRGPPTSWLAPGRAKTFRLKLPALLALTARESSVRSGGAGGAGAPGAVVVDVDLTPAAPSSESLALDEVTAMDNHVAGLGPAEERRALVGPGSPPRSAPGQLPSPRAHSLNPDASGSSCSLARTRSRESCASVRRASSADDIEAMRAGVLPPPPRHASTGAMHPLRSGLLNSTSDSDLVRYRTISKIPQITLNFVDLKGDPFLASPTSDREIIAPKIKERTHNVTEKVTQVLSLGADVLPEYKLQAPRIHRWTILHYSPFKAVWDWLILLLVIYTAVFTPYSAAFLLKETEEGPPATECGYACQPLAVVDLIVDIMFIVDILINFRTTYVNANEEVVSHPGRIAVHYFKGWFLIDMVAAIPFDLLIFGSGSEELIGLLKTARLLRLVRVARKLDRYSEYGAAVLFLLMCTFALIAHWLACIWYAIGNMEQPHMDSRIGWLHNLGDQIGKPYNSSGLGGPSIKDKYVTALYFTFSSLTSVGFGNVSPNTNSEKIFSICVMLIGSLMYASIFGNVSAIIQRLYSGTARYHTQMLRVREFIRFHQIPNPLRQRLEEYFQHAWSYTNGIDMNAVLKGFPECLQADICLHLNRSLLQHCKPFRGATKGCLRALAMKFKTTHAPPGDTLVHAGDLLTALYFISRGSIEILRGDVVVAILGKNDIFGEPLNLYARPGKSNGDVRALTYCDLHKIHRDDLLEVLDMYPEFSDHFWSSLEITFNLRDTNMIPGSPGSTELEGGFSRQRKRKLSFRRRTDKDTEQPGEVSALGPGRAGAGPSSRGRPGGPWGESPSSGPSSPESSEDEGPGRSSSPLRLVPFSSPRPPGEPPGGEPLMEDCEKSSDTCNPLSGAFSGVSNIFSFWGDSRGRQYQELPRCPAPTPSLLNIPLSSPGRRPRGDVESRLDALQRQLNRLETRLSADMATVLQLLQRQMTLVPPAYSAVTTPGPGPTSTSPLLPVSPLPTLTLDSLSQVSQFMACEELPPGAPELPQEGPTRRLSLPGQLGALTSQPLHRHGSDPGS

Row | SMILES | inhibition at 1.1 µM [1] [%] | inhibition at 11.1 µM [2]
1 | COc1ccccc1CNC(=O)CCn1c(=O)[nH]c2ccsc2c1=O | -1 | 5% (inactive)
2 | O=C(Nc1ccsc1C(=O)NC1CCCCC1)c1ccc(F)cc1 | -3 | 3% (inactive)
3 | CN1c2ccccc2N(C)C1c1ccc2c(c1)OCO2 | -1 | 17% (inactive)
4 | COc1ccc2nc(C)cc(Nc3ccc(Cl)cc3)c2c1 | 67 | 111%
5 | COc1ccc(CN2CCCC(C(=O)c3ccc(C(F)(F)F)cc3)C2)c(O)c1 (centres undefined) | 58 | 100%
6 | c1ccc(Cn2c(N=Nc3c(Nc4ccccc4)ccc4ccccc34)nc3ccccc32)cc1 | -2 | -2% (inactive)
7 | OC(CNCc1ccccc1)Cn1c2ccccc2c2ccccc21 (centres undefined) | 41 | 94% (active)
8 | COc1ccc(C)c2sc(N(Cc3cccnc3)C(=O)c3ccc(C#N)cc3)nc12 | 1 | 69% (active)
9 | O=C(NCC(c1ccsc1)N1CCCCCC1)c1ccc(C(F)(F)F)cc1 (centres undefined) | 50 | 94%
10 | COc1cc2c(cc1OC)C1=NNC(=O)C1=NC(C)(C)C2 | 9 | 11% (inactive)
11 | CCOC(=O)c1cnc2c(C)cccc2c1Nc1ccc(C(C)=O)cc1 | 6 | 39%
12 | O=c1nc(C=Cc2ccc(Cl)cc2)oc2ccccc12 | -5 | 10% (inactive)
13 | N=c1n(CCN2CCCCC2)c2ccccc2n1CC(O)c1cccc(Br)c1 (centres undefined) | 18 | 73% (active)
14 | OC(CNCC1CCCO1)Cn1c2ccc(Cl)cc2c2cc(Cl)ccc21 (centres undefined) | 12 | 16% (inactive)
15 | O=C(Cc1ccccc1)NC(c1ccc(Cl)cc1)c1c(O)ccc2ccccc12 (centres undefined) | -2 | -1% (inactive)
16 | Cc1cc(NCCN2CCCCC2)c2ccc3ccccc3c2n1 | 32 | 95% (active)
17 | CCOc1cccc(C(=O)Nc2ccc(-c3nc4ccccc4[nH]3)cc2)c1 | 0 | -7% (inactive)
18 | CCN(CC)S(=O)(=O)c1ccc(-c2csc(Nc3ccc(C)c(C)c3)n2)cc1 | -7 | -3% (inactive)
19 | O=C(NC1CCN(Cc2ccccc2)CC1)c1cc(C(=O)NC2CCN(Cc3ccccc3)CC2)cc(C(=O)NC2CCN(Cc3ccccc3)CC2)c1 | -2 | 39%
20 | Cc1cc(Nc2ccc(C)c(Cl)c2)n2nc(C(F)(F)F)nc2n1 | 23 | 72% (active)
21 | Cc1ccc(Cl)cc1N1CCN(CCCNC(=O)C2CCN(c3nc4ccccc4[nH]3)CC2)CC1 | 54 | 99%

Row | SMILES | inhibition at 1.1 µM [1] [%] | inhibition at 11.1 µM [2]
22 | CCCCCCc1cc2cc(-c3nc4ccccc4[nH]3)c(=Nc3ccccc3C)oc2cc1O | 2 | -1% (inactive)
23 | CN1CCN(c2ncnc3c2[nH]c2ccc(Cl)cc23)CC1 | 15 | 92% (active)
24 | COc1ccc(CNC(=O)c2cc3c(=O)n4ccccc4nc3n(CCc3ccccc3)c2=N)cc1 | 10 | 45%
25 | Cc1ccc(CSCc2ccc(C(=O)NC3CC3)o2)cc1 | 2 | 26%
26 | CCOc1ccc(/C=C/c2nc(=O)c3ccccc3o2)cc1 | 1 | 19% (inactive)
27 | COc1ccc(C(=O)Nc2ccc(Cl)cc2C(=O)Nc2ccncc2)cc1 | -6 | -3% (inactive)
28 | COc1cccc(NC(=O)Cn2c(C)c(C#N)c3ccccc32)c1 | 2 | -4% (inactive)
29 | N=c1n(CCN2CCCCC2)c2ccccc2n1CC(=O)c1ccc(Cl)c(Cl)c1 | -13 | -1% (inactive)
30 | COc1cc(OC)c(N(C)C(=O)c2cc3c(s2)-c2ccccc2S(=O)(=O)C3)cc1Cl | 3 | 41%
31 | CCOc1cc(CNC(C)C(O)c2ccccc2)cc(Cl)c1OCC (centres undefined) | 2 | 48%
32 | c1ccc2c(NCCc3c[nH]c4ccccc34)c3ccccc3nc2c1 | 64 | 109%
33 | CCCCCCc1cc2cc(-c3csc(C=Cc4ccccc4)n3)c(=O)oc2cc1O | 81 | 93%
34 | COc1ccccc1CNC(=O)C1c2ccccc2C(=O)N(CC(C)C)C1c1cccs1 (centres undefined) | -15 | 17% (inactive)
35 | CC(C)(C)CC(C)(C)NCC(O)COc1ccc2c(c1)CCC2 (centres undefined) | 8 | 62% (active)
36 | COc1cc(C(=O)Nc2ccc(-c3nc4ccccc4[nH]3)cc2)cc(OC)c1OC | -12 | 17% (inactive)
37 | CCCCc1c(CCC)c(=N)c2ccccc2n1C | 29 | 74% (active)
38 | CC(C)(C)C(=O)Nc1ccc(C(=O)Nc2cccc(-c3nc4ccccc4[nH]3)c2)cc1 | 8 | 40%
39 | Oc1c2c(nc3cc(-c4ccccc4)nn13)CCCC2 | 2 | -2% (inactive)
40 | CN(C)CCCNc1c2ccccc2nc2ccccc12 | 5 | 31%
41 | O=C(CCl)NCCOc1ccc(Cl)cc1Cl | 1 | 62% (active)
42 | OCCNc1nc(Nc2ccc(Cl)c(Cl)c2)nc2ccccc12 | 4 | 30%

Row | SMILES | inhibition at 1.1 µM [1] [%] | inhibition at 11.1 µM [2]
43 | COc1cc(OC)cc(N2C(=O)N(Cc3ccc(C(C)(C)C)cc3)c3ccccc3S2(=O)=O)c1 | 10 | 16% (inactive)
44 | CCOc1cc2c(cc1OCC)C(c1cc(Cl)c(O)c(OCC)c1)NCC2 (centres undefined) | 1 | 57% (active)
45 | Cc1ccc(-c2cc3c(SCC(=O)Nc4cc(C(F)(F)F)ccc4Cl)nccn3n2)cc1 | 2 | 29%
46 | Oc1ccc(Br)cc1CN1CCN(Cc2ccc(Cl)cc2)CC1 | 2 | 10% (inactive)
47 | FC(F)(F)c1ccc(Nc2nnnc3ccccc23)cc1 | -4 | -2% (inactive)
48 | COc1ccc(Br)cc1C1Nc2ccc3ccccc3c2C2=C1C(=O)CC(c1ccccc1)C2 (centres undefined) | -2 | 5% (inactive)
49 | COc1ccc(N2CCN(C(CNC(=O)C3CCCCC3)c3ccc4c(c3)OCO4)CC2)cc1 (centres undefined) | 17 | 51% (active)
50 | COc1cc(CNCCc2ccc(Cl)cc2)cc(OC)c1O | 16 | 59% (active)
51 | CCOC(=O)c1c[nH]c2c(CC)cccc2c1=O | 10 | 5% (inactive)
52 | COc1cccc(Nc2nc(NCCO)c3ccccc3n2)c1 | 18 | 57% (active)
53 | COc1ccc(C(=O)Nc2nonc2-c2ccc(OC)c(OC)c2)cc1Cl | 7 | 9% (inactive)
54 | CCn1c(SCC(=O)Nc2cc(C(F)(F)F)ccc2Cl)nc2ccccc2c1=O | -1 | 34%
55 | O=C(NNc1cc(N2CCCC2)nc(N2CCCC2)n1)c1ccccc1 | 4 | 35%
56 | O=C(Nc1cccc(-c2nc3ccccc3[nH]2)c1)c1cccc(NC(=O)c2ccco2)c1 | -6 | 6% (inactive)
57 | Cc1cc(C)c2c(c1)OCN(Cc1ccccc1Cl)C2 | 30 | 88% (active)
58 | COc1ccc(-n2ccnc2SCC(=O)Nc2cc(C)ccc2C)c(OC)c1 | 5 | 29%
59 | Cc1ccc(-c2cc3c(nn2)-c2ccccc2C3=O)cc1 | 14 | 50% (active)
60 | O=C(NC1CCCC1)c1ccc(N2CCC(NCc3cccc(C(F)(F)F)c3)CC2)cc1 | 76 | 101%
61 | CCn1c(CN2CCN(Cc3ccccc3)CC2)nc2cc(NC(=O)c3cccs3)ccc21 | 71 | 100%
62 | O=C(Nc1ccccc1O)c1ccc(Oc2cccc(C(=O)Nc3ccccc3O)c2)cc1 | -2 | 5% (inactive)
